As a reminder, the IC50 is the midpoint of a concentration-inhibition curve.

This note sets out measurements from patent US20250213603A1, “PHARMACEUTICAL COMPOSITION FOR TREATING CANCER” (SAGA UNIVERSITY, priority 2021, published 2025).

The subject of assay [1] is BV173. The experiment in a line: Cell proliferation inhibition, modified MTT assay (Cell Counting Kit-8). The class given is cell-based. As to the method: (§1) The proliferation inhibitory action in leukemia cell lines was evaluated using a modified dimethyl-thiazole-diphenyl-tetrazolium (MTT) assay as follows.
(§2) The hepatocyte line and leukemia cell lines (K562, BV173, Ba/F3 p190, Ba/F3 p210, MYL-R, K562-IMR, and KBM5-STI) were used in this example. The FA-HP-β-CyD synthesized in Example 1 was used.
(§3) The cell viability was evaluated using the trypan blue dye exclusion method. Cell proliferation was evaluated using a Cell Counting Kit-8 (Dojindo, Japan), which is an MTT assay. 2×10^4 of each cell was seeded with 100 μL RPMI1640 medium (Sigma-Aldrich, USA) per well to a flatbottom 96-well plate (Greiner Labortechnik, Hamburg, Germany), and incubation for 72 hours was carried out with exposure to HP-β-CyD and FA-HP-β-CyD at different concentrations (0 mM (control: CT), 0.05 mM, 0.1 mM, 0.25 mM, 0.5 mM, and 1 mM).
Background: Formazan colour is commonly taken as a measure of viable cells.

The next assay relates to Ba/F3 P190. The assay is described as above. Type of assay: cell-based. As to the method: as §1, §2, §3
In another assay the test system is Ba/F3 P210. The assay is described as above. The class given is cell-based. The following applies: Ba/F3 P210, incubation for 72 hours, average±SD of 3 independent experiments. As to the method:
as §1, §2, §3

The subject of a further assay is K562-IMR. The description is as above. The class given is cell-based. The following applies: incubation for 72 hours, average±SD of 3 independent experiments. How it is done: as §1, §2, §3
Assay [2] relates to K562. Described as above. The class given is cell-based. As to the method:
as §1, §2, §3

For another assay, the system named is KBM5-STI. The assay is described as above. Type of assay: cell-based. The following applies: incubation for 72 hours, average±SD of 3 independent experiments. As to the method:
as §1, §2, §3

The next assay deals with MYL-R. Described as above. Type of assay: cell-based. The following applies: incubation for 72 hours, average±SD of 3 independent experiments. How it is done: as §1, §2, §3
The next assay relates to hepatocyte. The assay is described as above. The settings on record: hepatocyte line, incubation for 72 hours, average±SD of 3 independent experiments. Type of assay: cell-based. How it is done:
as §1, §2, §3

Assay [3] relates to BV173. The experiment in a line: Effect of autophagy inhibition on the cell proliferation inhibitory effect. The class given is cell-based. The settings on record: 5 mM FA-HP-β-CyD or 15 mM HP-β-CyD, chloroquine, bafilomycin A1 or LY294002 (FIG. 8). As to the method:
(§4) The effect of autophagy inhibition on the cell proliferation inhibitory effect was evaluated as follows.
(§5) Leukemia cell lines (K562 and BV173) were used in this example. The FA-HP-β-CyD synthesized in Example 1 was used.
(§6) 2×10^5 of each cell with 100 μL RPMI1640 medium (Sigma-Aldrich, USA) was seeded per well to a flatbottom 96-well plate (Greiner Labortechnik, Hamburg, Germany), and treatment was carried out for 2 hours at 37° C. with 5 mM FA-HP-β-CyD and 15 mM HP-β-CyD. Pretreatment was then carried out for 24 hours with the autophagy inhibitors chloroquine (20 μM) (FUJIFILM Wako Pure Chemical Corporation), bafilomycin A1 (1 nM) (Funakoshi), or LY294002 (50 μM) (FUJIFILM Wako Pure Chemical Corporation). Cell proliferation was then evaluated using a Cell Counting Kit-8 (Dojindo, Japan), which is a modified dimethyl-thiazole-diphenyl-tetrazolium (MTT) assay.
(§7) Here, the “CT” in FIG. 8 was evaluated as follows. Thus, 2×10^5 of each cell with 100 μL RPMI1640 medium was seeded per well to a flatbottom 96-well plate and culture was carried out for 2 hours+24 hours as in the exposure groups, but without exposure to the agent or autophagy inhibitor, and this was used as the CT. This CT was compared with the exposure groups.
(§8) Significant difference was determined as follows. That is, the data were analyzed using a two-sided Student's t-test without a comparison table. A value of P<0.05 was considered to indicate a significant difference.

In assay [4] the test system is K562. Described as above. The class given is cell-based. The settings on record: 5 mM FA-HP-β-CyD or 15 mM HP-β-CyD, chloroquine, bafilomycin A1 or LY294002 (FIG. 8). As to the method:
as §4, §5, §6, §7, §8

Assay [5] relates to EGFP+Ba/F3 BCR-ABLWT cells. Kind of assay: Survival extension in a BCR-ABL leukemia mouse model. Type of assay: in vivo, nude mice. The settings on record: 15 mM (249 mg/kg) FA-HP-β-CyD vs 150 mM (2086.5 mg/kg) HP-β-CyD, intraperitoneally twice a day for 20 days (FIG. 10). How it is done: The effect due to FA-HP-β-CyD on the extension of survival in a BCR-ABL leukemia mouse model was evaluated as follows.
(§9) The FA-HP-β-CyD synthesized in Example 1 was used in this example.
EGFP+Ba/F3 BCR-ABLWT cells (1×10^6 cells) were transplanted into 6-week-old nude mice. Three days after transplantation, 200 μL vehicle (n=10), 150 mM (2086.5 mg/kg) HP-β-CyD (n=10), 15 mM (249 mg/kg) FA-HP-β-CyD (n=10), or […] (200 mg/kg) imatinib (n=10) was injected intraperitoneally twice a day for 20 days. The survival time was monitored daily. The survival data were analyzed using a log-rank nonparametric test and are reported as Kaplan-Meier survival curves.
as §8

In assay [6] the test system is BV173 cells (leukemia cells). Kind of assay: Ventricular invasion mouse model (leukemic invasion of the central nervous system). Type of assay: in vivo, BRJ mice. How it is done: Here, the effect of HP-β-CyD and FA-HP-β-CyD on leukemic central nervous system invasion was test by constructing a mouse model.
BRJ mice (female) were anesthetized (intraperitoneal administration (IP) of 100 μL of a triple anesthetic of medetomidine hydrochloride (0.75 mg/kg), mitazolam (4 mg/kg), and butorphanol tartrate (5 mg/kg)), and intrathecal transplantation was carried out, through the right coronal suture at a point 1 mm to the right of the center line defined by the sagittal suture, with a polyethylene stop tube-equipped microsyringe designed to inject BV173 cells (leukemia cells) precisely to a depth of 3 mm using a Hamilton syringe LT type needle tip style pst-3 and 25 gauge.
as §9
The doses were set at 30 mg/kg for HP-β-CyD and 3 mg/kg for FA-HP-β-CyD by referring to the dose of HP-β-CyD for a mouse model of the hereditary lipid storage disease Niemann-Pick disease type C (NPC) (Int. J. Mol. Sci. 2021, 22, 452. https://doi.org/10.3390/ijms22010452).
as §8

Entries after “also recorded” stand apart in the source; their conditions may differ.

Take “folic acid-appended hydroxypropyl-β-cyclodextrin [FA-HP-β-CyD]”: the cell proliferation entry with BV173 [1] (BV173, 0.05-1 mM, 72 hours (FIG. 2)) was “inhibited in a dose-dependent manner”; in the assay on Ba/F3 P190 (Ba/F3 p190, 0.05-1 mM, 72 hours (FIG. 2)) it was “inhibited in a dose-dependent manner”; in the assay with K562 [2] (K562, 0.05-1 mM, 72 hours (FIG. 2)), “inhibited in a dose-dependent manner”. Further, the IC50 with BV173 [1] (BV173, incubation for 72 hours, average±SD of 3 independent experiments) worked out at 170 ± 64 µM; with Ba/F3 P190 (Ba/F3 P190, incubation for 72 hours, average±SD of 3 independent experiments), 910 ± 160 µM; in the assay on Ba/F3 P210, 960 ± 17 µM; with K562-IMR, 700 ± 55 µM; with K562 [2] (K562, incubation for 72 hours, average±SD of 3 independent experiments), 690 ± 190 µM; in the assay on KBM5-STI it was 800 ± 120 µM. Also, the IC50 with MYL-R came out at 930 ± 110 µM; in the assay on hepatocyte, 20100 ± 4500 µM. The “cell proliferation inhibitory capability on addition of an autophagy inhibitor” value in the assay with BV173 [3] and in the assay on K562 [4] was “reduced by the addition of an autophagy inhibitor” in each case. Moreover, the survival time extension entry in assay [5] was “same survival time extension at one-tenth the amount of HP-β-CyD; also recorded: significant extension of the survival time”. Further, in assay [6] (FIG. 14 compared with FIG. 13, HP-β-CyD 30 mg/kg, FA-HP-β-CyD 3 mg/kg), the “survival in two-time administration model compared with one-time administration model” value is “survival was extended by one day”. Also, the “survival in comparison to the vehicle group and HP-β-CyD group” value in assay [6] (administered two times, first and second week after transplantation, FA-HP-β-CyD 3 mg/kg (FIG. 14)) is “extension of survival was confirmed”; in assay [6] (single administration in the second week after ventricular transplantation, FA-HP-β-CyD 3 mg/kg (FIG. 13)) it was “extension of survival was confirmed”. In addition, the “P versus the vehicle group (survival)” value was 0.0472 in [6] (administered two times, first and second week, HP-β-CyD 30 mg/kg, FA-HP-β-CyD 3 mg/kg (FIG. 14)); 0.0111 in [6] (single administration in the second week, HP-β-CyD 30 mg/kg, FA-HP-β-CyD 3 mg/kg (FIG. 13)).
